Legend:
[1] = Cytotoxicity against cat CRFK cells assessed as cell viability at 10 uM after 24 hrs by MTT assay; type: cell-based, Felis catus; conditions: read-out: Activity
[2] = Cytotoxicity against cat CRFK cells assessed as cell viability after 7 days by MTT assay; type: cell-based, Felis catus; conditions: for CC50 at 168 h: CRFK cells; for CC50: crfk, 168 h
[3] = tested on: Feline immunodeficiency virus; assay: Antiviral activity against Feline immunodeficiency virus infected in cat FL-4 cells assessed as viral RNA production by RT-qPCR; type: functional, organism-based
[4] = Therapeutic index, ratio of CC50 for cat CRFK cells to EC50 for Feline immunodeficiency virus infected in cat FL-4 cells; type: cell-based; conditions: for selectivity ratio: read-out: Ratio CC50/EC50; for Ratio CC50/EC50: crfk
[5] = Feline immunodeficiency virus, FL-4, read-out: EC50

Compound	viability at 24 h, 10 µM [1] [%]	CC50 at 168 h [2] [nM]	EC50 [3, 5] [nM]	selectivity ratio [4]	CC50 [2]	EC50 ([3]; fl-4)	Ratio CC50/EC50 [4]
CCN1c2c(ssc2=S)Sc2ssc(=S)c21	98.8	31	< 1	> 31			
CCn1c2c(=S)ssc2c2ssc(=S)c21	> 100	20100	656	30.6			
O=C(O)CCN1c2c(ssc2=S)Sc2ssc(=S)c21	97.2	1720	379	4.5			
CCN1c2c(ssc2=O)Sc2ssc(=O)c21	40.2				ND(toxic)	ND(toxic)	ND(toxic)
CCOC(=O)CCN1c2c(ssc2=O)Sc2ssc(=O)c21	76.8	56	16.2	3.5			
CC(=O)OCCN1c2c(ssc2=O)Sc2ssc(=O)c21	39.2				ND(toxic)	ND(toxic)	ND(toxic)
CCN1c2c(ssc2=O)Sc2ssc(=S)c21	> 100	> 10000	345	> 29			
CCOC(=O)CCN1c2c(ssc2=O)Sc2ssc(=S)c21	91.2	2270	642	3.5			
CCOC(=O)CCn1c2c(=O)ssc2c2ssc(=O)c21	78.2				ND(toxic)	ND(toxic)	ND(toxic)
Cc1nnc(C(=O)NC(C)(C)c2nc(C(=O)NCc3ccc(F)cc3)c(O)c(=O)n2C)o1 [RALTEGRAVIR]	> 100	> 100000	9.98	> 100000			
Cc1cn([C@H]2C[C@H](N=[N+]=[N-])[C@@H](CO)O2)c(=O)[nH]c1=O [ZIDOVUDINE]	> 100	> 100000	5310	> 18.8			

From ChEMBL document CHEMBL3286153, “Evaluation of the antiviral efficacy of bis[1,2]dithiolo[1,4]thiazines and bis[1,2]dithiolopyrrole derivatives against the nucelocapsid protein of the Feline Immunodeficiency Virus (FIV) as a model for HIV infection” (Bioorg Med Chem Lett, 2014)
